From ChEMBL document CHEMBL5131449, “Synthetic Biology-Based Discovery of Diterpenoid Pyrones from the Genome of Eupenicillium shearii” (J Nat Prod, 2022)
Active and inactive are the calls of the source. No cut-off for these calls is given here.

Target: Amyloid-beta precursor protein (Homo sapiens) (UniProt P05067)
Assay: Inhibition of HFIP-pretreated amyloid beta (1 to 42) (unknown origin) aggregation assessed as suppression of amyloid beta aggregation at 50 uM incubated for 24 hrs by Thioflavin T based fluorescence assay
Type: cell-based

Amyloid-beta precursor protein (Homo sapiens), sequence (P05067 whole entry): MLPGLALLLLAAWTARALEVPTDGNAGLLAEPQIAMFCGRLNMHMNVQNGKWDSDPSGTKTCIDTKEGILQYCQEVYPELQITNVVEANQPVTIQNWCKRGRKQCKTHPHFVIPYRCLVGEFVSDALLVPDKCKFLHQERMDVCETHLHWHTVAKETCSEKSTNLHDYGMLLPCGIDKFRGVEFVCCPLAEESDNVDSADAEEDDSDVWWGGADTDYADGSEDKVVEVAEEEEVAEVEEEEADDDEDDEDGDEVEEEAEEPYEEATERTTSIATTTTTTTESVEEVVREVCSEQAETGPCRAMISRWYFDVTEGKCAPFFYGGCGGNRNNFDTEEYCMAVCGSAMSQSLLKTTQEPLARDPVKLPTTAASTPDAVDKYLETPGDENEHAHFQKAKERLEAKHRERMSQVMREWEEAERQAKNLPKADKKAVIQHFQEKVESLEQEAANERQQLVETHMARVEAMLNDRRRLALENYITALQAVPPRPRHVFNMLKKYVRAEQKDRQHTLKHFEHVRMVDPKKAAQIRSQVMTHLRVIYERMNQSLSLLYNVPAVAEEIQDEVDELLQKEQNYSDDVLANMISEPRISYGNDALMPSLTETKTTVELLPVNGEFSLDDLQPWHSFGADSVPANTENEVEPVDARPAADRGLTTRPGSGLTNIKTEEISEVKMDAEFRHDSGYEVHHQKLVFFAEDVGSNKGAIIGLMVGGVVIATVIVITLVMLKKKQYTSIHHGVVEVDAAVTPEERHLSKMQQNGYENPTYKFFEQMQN

inhibition	SMILES
Active	Cc1oc(=O)c2c(c1C)O[C@@]1(C)[C@H](O)[C@H](O)[C@H]3[C@@](C)(CC[C@H]4C(C)(C)[C@@H](O)CC[C@@]43CO)[C@@H]1C2
Active	Cc1oc(=O)c2c(c1C)O[C@@]1(C)[C@H](O)[C@H](O)[C@H]3[C@@](C)(CC[C@H]4C(C)(C)[C@@]5(O)CC[C@@]43CO5)[C@@H]1C2
Active	Cc1oc(=O)c2c(c1C)O[C@@]1(C)[C@H](O)[C@H](O)[C@@H]3[C@@]4(C)CCC(=O)C(C)(C)[C@@H]4CC[C@@]3(C)[C@@H]1C2
